Test results: ChEMBL document CHEMBL2021763, “Solution NMR analysis of the binding mechanism of DIVS6 model peptides of voltage-gated sodium channels and the lipid soluble alkaloid veratridine” (Bioorg Med Chem, 2012)

Experiments:
[1] = Toxicity in ip dosed mouse; format: organism-based; details: in vivo
[2] = Binding affinity to transmembrane model peptide-1 of domain 4 segment 6 of rat skeletal muscle Nav1.4 by Marquardt and Levenberg algorithm analysis
[3] = Binding affinity to transmembrane model peptide-2 of domain 4 segment 6 of rat skeletal muscle Nav1.4 by Marquardt and Levenberg algorithm analysis

C[C@H]1CC[C@@H]2N(C1)C[C@@H]1[C@](O)([C@@H](O)C[C@@]3(O)[C@@H]4CC[C@@H]5[C@]6(O)O[C@@]4(C[C@@]13O)[C@@]5(C)CC[C@@H]6O)[C@]2(C)O [VERACEVINE]
LD50 [1]: > 100 mg/kg | Kd [2]: 890 µM

COc1ccc(C(=O)O[C@H]2CC[C@@]3(C)[C@@H]4CC[C@H]5[C@]6(O)C[C@H](O)[C@@]7(O)[C@@H](CN8C[C@@H](C)CC[C@H]8[C@@]7(C)O)[C@]6(O)C[C@@]53O[C@]24O)cc1OC [VERATRIDINE]
Kd [3]: 490 µM | LD50 [1]: 9 mg/kg | Kd [2]: 1400 µM
